Data from PubChem BioAssay (NCI).
Where “and” joins values, the source holds several entries; their conditions need not be identical. Identical values can stand only once.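 How tested: cells in 96-well plates exposed to compound for 48 hours at five concentrations. At the GI50, growth is halved. TGI: concentration producing complete growth inhibition.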

Assays:
Experiment in all cases: growth of human tumour cells (NCI), 48 h; in the data active = GI50 below about 0.43 µM; inactive = the rest
RPMI-8226 leukemia = tested on: RPMI-8226 leukemia
HS 578T breast = tested on: HS 578T breast
IGROV1 ovarian = tested on: IGROV1 ovarian
RXF 393 renal = tested on: RXF 393 renal
NCI-H460 lung = tested on: NCI-H460 lung
SF-295 CNS = tested on: SF-295 CNS
MDA-MB-231 breast = tested on: MDA-MB-231 breast
OVCAR-3 ovarian = tested on: OVCAR-3 ovarian
SNB-19 CNS = tested on: SNB-19 CNS
MCF7 breast = tested on: MCF7 breast
T-47D breast = tested on: T-47D breast
NCI/ADR-RES ovarian = tested on: NCI/ADR-RES ovarian
OVCAR-4 ovarian = tested on: OVCAR-4 ovarian
PC-3 prostate = tested on: PC-3 prostate
HT29 colon = tested on: HT29 colon
786-0 renal = tested on: 786-0 renal
MALME-3M melanoma = tested on: MALME-3M melanoma
NCI-H522 lung = tested on: NCI-H522 lung
CAKI-1 renal = tested on: CAKI-1 renal
ACHN renal = tested on: ACHN renal
UO-31 renal = tested on: UO-31 renal
HOP-92 NSCLC = tested on: HOP-92 NSCLC
SK-MEL-28 melanoma = tested on: SK-MEL-28 melanoma
U251 CNS = tested on: U251 CNS
HCT-15 colon = tested on: HCT-15 colon
SF-268 CNS = tested on: SF-268 CNS
HOP-62 NSCLC = tested on: HOP-62 NSCLC
NCI-H23 lung = tested on: NCI-H23 lung
SNB-75 CNS = tested on: SNB-75 CNS

O=C(NC[C@H](O)CO)c1ccncc1Nc1ccc(I)cc1F
inactive: GI50 (RPMI-8226 leukemia) > 10 µM and 28.4 µM | GI50 (HS 578T breast) > 64.1 µM | GI50 (RXF 393 renal) 0.678 µM and 1.6 µM | GI50 (NCI-H460 lung) > 10 µM and 11.8 µM | GI50 (SF-295 CNS) > 41 µM | GI50 (OVCAR-3 ovarian) > 10 µM and 20.1 µM | GI50 (SNB-19 CNS) > 10 µM and 21.2 µM | GI50 (MCF7 breast) > 10 µM and 15.5 µM | GI50 (T-47D breast) > 10 µM and 19.3 µM | GI50 (NCI/ADR-RES ovarian) > 10 µM and 35 µM | GI50 (OVCAR-4 ovarian) > 7.46 µM and 10.6 µM | GI50 (PC-3 prostate) > 10 µM and 61 µM | GI50 (786-0 renal) > 10 µM and 6.21 µM | GI50 (NCI-H522 lung) 4.95 µM and 33.2 µM | GI50 (CAKI-1 renal) 0.59 µM and 1.38 µM | GI50 (ACHN renal) > 2.47 µM and 6.98 µM | GI50 (U251 CNS) 1.84 µM and 4.92 µM | GI50 (HCT-15 colon) 3.53 µM and 5.62 µM | GI50 (SF-268 CNS) > 10 µM and 29.9 µM | GI50 (SNB-75 CNS) > 10 µM and 33.2 µM
0.0972 µM and < 0.0162 µM: TGI (MALME-3M melanoma)
> 71.8 µM: TGI (NCI-H23 lung)
> 10 µM and 20.3 µM: TGI (UO-31 renal)
> 94 µM: TGI (HOP-62 NSCLC)
active: GI50 (MDA-MB-231 breast) 0.154 µM and 0.348 µM | GI50 (HT29 colon) 0.00409 µM and < 0.011 µM | GI50 (MALME-3M melanoma) 0.00242 µM and < 0.01 µM | GI50 (HOP-92 NSCLC) 0.0509 µM and 0.0379 µM | GI50 (SK-MEL-28 melanoma) 0.00334 µM and < 0.0104 µM | GI50 (HOP-62 NSCLC) 0.0472 µM and 0.298 µM | GI50 (NCI-H23 lung) 0.0913 µM and 0.0707 µM
> 38.7 µM: TGI (HT29 colon)
0.2 µM and 0.988 µM: GI50 (UO-31 renal)
> 100 µM: TGI (RPMI-8226 leukemia) | TGI (HS 578T breast) | TGI (IGROV1 ovarian) | TGI (NCI-H460 lung) | TGI (SF-295 CNS) | TGI (OVCAR-3 ovarian) | TGI (SNB-19 CNS) | TGI (MCF7 breast) | TGI (T-47D breast) | TGI (NCI/ADR-RES ovarian) | TGI (OVCAR-4 ovarian) | TGI (PC-3 prostate) | TGI (786-0 renal) | TGI (NCI-H522 lung) | TGI (CAKI-1 renal) | TGI (ACHN renal) | TGI (U251 CNS) | TGI (HCT-15 colon) | TGI (SF-268 CNS) | TGI (SNB-75 CNS)
> 10 µM and 46.7 µM: TGI (MDA-MB-231 breast)
1.2 µM and 3.61 µM: TGI (HOP-92 NSCLC)
> 10 µM and 29.1 µM: TGI (RXF 393 renal)
